The values that follow come from article PMC6522912, “Evaluation of the published kinase inhibitor set to identify multiple inhibitors of bacterial ATP-dependent mur ligases” (Journal of Enzyme Inhibition and Medicinal Chemistry, 2019).

In experiment [1] the target is E. coli MurC (Escherichia coli, UniProt P17952). As to the kind of experiment: Malachite green inhibition assay, MurC. The format is biochemical. The note with it: for remaining activity at 100 µM: 0.25 h, read-out: RA [%] at 100 µM MurC; for remaining activity at 100 µM / RA [%] at 100 µM MurC: Table S1, PKIS screening. As for the experimental part:
(§1) Inhibition of the Mur ligases was determined using the malachite green assay, with slight modifications.
(§2) In all cases, the final concentration of DMSO was 5% (v/v). After incubation for 15 min at 37 °C, the enzyme reaction was terminated by addition of 100 µM Biomol green reagent, and the absorbance was measured at 650 nm after 5 min. All of the experiments were run in duplicate. Residual activities were calculated with respect to control assays without the tested compounds, but with the 5% DMSO carrier.
(§3) The published kinase inhibitor set compounds were evaluated for inhibition of MurC, D and F ligases from E. coli using the Malachite green assay, which detects orthophosphate generated during enzymatic reactions. To avoid non-specific inhibition due to aggregate formation, all of the compounds were tested in the presence of detergent (0.005% Triton-X114). The data are presented as the residual activities of these Mur ligases in the presence of 100 µM of each test compound (Supporting Information Table S1). […] Additionally, regarding the data of profiled compounds in large panels of human kinase assays[41]

Experiment [2] has as its target E. coli MurF (Escherichia coli, UniProt P11880). Kind of experiment: biochemical. The note with it: for remaining activity at 100 µM: 0.25 h, read-out: RA [%] at 100 µM MurF; for remaining activity at 100 µM / RA [%] at 100 µM MurF: Table S1, PKIS screening. As for the experimental part: as §1, §2, §3
Experiment [3] has as its target E. coli MurD (Escherichia coli, UniProt P14900). As to the kind of experiment: biochemical. The note with it: for remaining activity at 100 µM: 0.25 h, Table S1, PKIS screening, read-out: RA [%] at 100 µM MurD. As for the experimental part:
as §1, §2
The published kinase inhibitor set compounds were evaluated for inhibition of MurC, D and F ligases from E. coli using the Malachite green assay, which detects orthophosphate generated during enzymatic reactions. To avoid non-specific inhibition due to aggregate formation, all of the compounds were tested in the presence of detergent (0.005% Triton-X114). The data are presented as the residual activities of these Mur ligases in the presence of 100 µM of each test compound (Supporting Information Table S1).

The mark [4] stands for this setting: Table S3, aza stilbene compounds.

Sequence of E. coli MurC (P17952 whole entry): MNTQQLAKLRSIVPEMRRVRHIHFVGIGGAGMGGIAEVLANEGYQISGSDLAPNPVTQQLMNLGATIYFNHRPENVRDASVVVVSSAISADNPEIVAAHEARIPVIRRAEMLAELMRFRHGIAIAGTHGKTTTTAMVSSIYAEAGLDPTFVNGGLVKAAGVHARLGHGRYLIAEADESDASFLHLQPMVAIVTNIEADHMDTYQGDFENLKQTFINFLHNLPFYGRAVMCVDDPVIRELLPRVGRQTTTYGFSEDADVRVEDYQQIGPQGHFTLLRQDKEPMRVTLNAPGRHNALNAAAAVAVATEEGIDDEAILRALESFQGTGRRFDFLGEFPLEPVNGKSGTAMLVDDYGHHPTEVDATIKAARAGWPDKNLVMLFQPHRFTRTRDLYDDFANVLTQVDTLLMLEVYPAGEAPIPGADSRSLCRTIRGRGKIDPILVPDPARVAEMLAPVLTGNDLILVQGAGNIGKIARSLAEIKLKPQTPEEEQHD
Sequence of E. coli MurD (P14900 whole entry): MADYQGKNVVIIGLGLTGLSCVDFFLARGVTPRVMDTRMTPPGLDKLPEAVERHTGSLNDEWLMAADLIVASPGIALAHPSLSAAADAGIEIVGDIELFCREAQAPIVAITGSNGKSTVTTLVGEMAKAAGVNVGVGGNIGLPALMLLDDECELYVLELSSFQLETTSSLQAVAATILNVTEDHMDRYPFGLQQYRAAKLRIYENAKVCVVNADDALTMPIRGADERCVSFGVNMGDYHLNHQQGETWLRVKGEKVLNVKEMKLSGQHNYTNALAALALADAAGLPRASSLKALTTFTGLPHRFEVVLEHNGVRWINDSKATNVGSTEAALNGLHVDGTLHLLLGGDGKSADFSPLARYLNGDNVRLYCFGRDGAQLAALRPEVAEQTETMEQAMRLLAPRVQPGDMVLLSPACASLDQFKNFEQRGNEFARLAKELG
Sequence of E. coli MurF (P11880 whole entry): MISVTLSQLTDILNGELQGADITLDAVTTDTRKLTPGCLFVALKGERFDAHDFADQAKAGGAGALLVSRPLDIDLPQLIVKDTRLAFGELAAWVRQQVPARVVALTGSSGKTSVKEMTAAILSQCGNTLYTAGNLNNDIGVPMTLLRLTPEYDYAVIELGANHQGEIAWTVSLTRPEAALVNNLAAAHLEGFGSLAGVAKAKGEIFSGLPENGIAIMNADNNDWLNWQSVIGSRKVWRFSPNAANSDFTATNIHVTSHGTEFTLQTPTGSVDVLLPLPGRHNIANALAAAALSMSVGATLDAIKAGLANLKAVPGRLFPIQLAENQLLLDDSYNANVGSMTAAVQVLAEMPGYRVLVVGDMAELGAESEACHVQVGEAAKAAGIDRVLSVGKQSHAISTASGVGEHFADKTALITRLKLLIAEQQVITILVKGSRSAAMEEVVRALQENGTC

With `C[C@@H](Oc1cc(-n2cnc3ccc(OCC4CCN(C)CC4)cc32)sc1C(N)=O)c1ccccc1Cl` [GSK571989A], the remaining activity at 100 µM in experiment [1] was determined as 51%; in experiment [2] it was 53%; in experiment [3], 53%.
Consider `CNC(=O)c1cncc(/C=C/c2c(Cl)cccc2Cl)c1` [GW445014X], for which the remaining activity at 100 µM came to 81% in experiment [1], 77% in experiment [2] and 80% in experiment [3].
The like results for `CC(C)c1ccc(-c2cc(-c3c[nH]nc3-c3ccccn3)ccn2)cc1` [GW682841X] were, in that order, 78%, 88% and 85%.
Turning to `CN(C)CCOc1ccc(-c2cc(-c3ccc4c(c3)CCC4=NO)c(-c3ccncc3)o2)cc1.Cl` [SB-682330-A], the “RA [%] at 100 µM MurC” value in experiment [1] is given as 31%. Moreover, in experiment [2], the “RA [%] at 100 µM MurF” value is listed as 57%. The “RA [%] at 100 µM MurD” value in experiment [3] is on record as 51.
Turning to `NC(=O)c1sc(-n2cnc3ccc(C(F)(F)F)cc32)cc1OCc1ccccc1Br` [GW853606X], the results for the remaining activity at 100 µM in experiment [1], in experiment [2] and in experiment [3] were 64%, 75% and 86%, respectively.
The like results for `NS(=O)(=O)c1ccc(NN=C2C(=O)Nc3ccc(C(=O)NCCCn4ccnc4)cc32)cc1` [GW290597X] were, in that order, 63%, 100% and 92%.
For `NC(=O)c1ccc(-c2nc(-c3ccc4c(c3)OCO4)c(-c3ccccn3)[nH]2)cc1` [SB-431542-A], the “RA [%] at 100 µM MurC” value in experiment [1] is recorded as 59%. The “RA [%] at 100 µM MurF” value in experiment [2] was 100%. For the same compound, the “RA [%] at 100 µM MurD” value in experiment [3] came to 90.
With `CCn1c(-c2nonc2N)nc2ccccc21` [GW549034X], the “RA [%] at 100 µM MurC” value in experiment [1] was determined as 70%. Besides, the “RA [%] at 100 µM MurF” value in experiment [2] worked out at 93%. Also, in experiment [3], the remaining activity at 100 µM amounted to 100%.
`Cc1cc(O)cc(C)c1/C=C/c1cncc(C(=O)OC(C)(C)C)c1` [GW439255X]: the remaining activity at 100 µM was determined as 75% in experiment [1], 69% in experiment [2] and 96% in experiment [3].
The like results for `Cc1nn(C)c2cc(N(C)c3ccnc(Nc4cccc(S(N)(=O)=O)c4)n3)ccc12` [GW770220A] were, in that order, 91%, 74% and 86%.
Take `CNC(=O)Oc1cc(C)c(C=Cc2cncc(C(=O)NC)c2)c(C)c1` [Compound 13]: the “RA (%) MurC” value in experiment [1] (setting [4]) turned out to be 68%. For the same compound, in experiment [2] (setting [4]), the “RA (%) MurF” value stood at 87%. Moreover, the “RA (%) MurD” value in experiment [3] is on record as 69%.
In the case of `Fc1ccc(-c2c(-c3ccncc3)nc3n2CCS3)cc1` [SKF-86055], the remaining activity at 100 µM is 98% in experiment [1], 89% in experiment [2] and 91% in experiment [3].
`Cc1ccc(C(=O)NC2CC2)cc1-c1ccc2[nH]ncc2c1` [GW820759X]: the remaining activity at 100 µM was found to be 63% in experiment [1], 86% in experiment [2] and 100% in experiment [3].
As to `COc1ccc2cc(-c3c(-c4ccncc4)nc(-c4ccc(S(C)(=O)=O)cc4C)n3C)ccc2c1` [SB-633825], the remaining activity at 100 µM in experiment [1] was determined as 36%; in experiment [2] it was 56%; in experiment [3], 69%.
For `COc1ccc(COc2ccc(Cc3cnc(N)nc3N)cc2OC)cc1` [GW632580X], in that order: 88%, 99% and 89%.
The like results for `Fc1ccc(-c2cc(-c3c[nH]nc3-c3ccccn3)ccn2)cc1` [GW680975X] were, in that order, 68%, 96% and 84%.
The like results for `CCn1c(-c2nonc2N)nc2ccncc21` [SB-738561] were, in that order, 78%, 100% and 58%.
As for `CC1=C(C(=O)Nc2cc(Cl)c3[nH]ncc3c2)C(c2ccc(C(F)(F)F)cc2)CC(=O)N1` (stereo not drawn) [GSK466317A], the remaining activity at 100 µM came out at 80% in experiment [1], 71% in experiment [2] and 99% in experiment [3].
Regarding `CC1(C)CC(n2cnc(-c3ccc(F)cc3)c2-c2ccnc(N)n2)CC(C)(C)N1` [SB-221466], the remaining activity at 100 µM in experiment [1] stood at 91%; in experiment [2], 100%; in experiment [3], 93%.
As to `Nc1nccc(-c2c(-c3ccc(F)cc3)ncn2C2CCNCC2)n1` [SB-220025-A], the “RA [%] at 100 µM MurC” value in experiment [1] turned out to be 98%. The “RA [%] at 100 µM MurF” value in experiment [2] was 96%. Besides, the “RA [%] at 100 µM MurD” value in experiment [3] turned out to be 99.
In the case of `COC(=O)c1cncc(/C=C/c2c(C)cc(O)cc2C)c1` [GW406731X], the values for the remaining activity at 100 µM in experiment [1], in experiment [2] and in experiment [3] were 98%, 81% and 69%, respectively.
For `COc1cccc(-n2ncc3c(N/N=C/c4ccc(F)cc4)ncnc32)c1` [GW817396X], in that order: 69%, 41% and 95%.
The like results for `CN(c1ccc(NC(=O)Nc2ccc(OC(F)(F)F)cc2)cc1)c1ccnc(Nc2cccc(S(N)(=O)=O)c2)n1` [GW806742X] were, in that order, 64%, 93% and 92%.
Turning to `Nc1nc(-c2ccc(F)cc2)c(-c2ccc3ncccc3n2)s1` [GW785804X], the values for the remaining activity at 100 µM in experiment [1], in experiment [2] and in experiment [3] were 100%, 78% and 82%, respectively.
For `N#Cc1cccc(Nc2ncc(-c3ccccc3)o2)c1` [GW627834A], in that order: 78%, 85% and 75%.
The like results for `O=S(=O)(CCNCc1ccc(-c2ccc3ncnc(Nc4ccc(OCc5cccc(F)c5)c(Cl)c4)c3c2)o1)c1ccccc1` [GW633459A] were, in that order, 100%, 84% and 80%.
In the case of SB-675259-M, the “RA [%] at 100 µM MurC” value in experiment [1] is 72%. In experiment [2], the “RA [%] at 100 µM MurF” value was found to be 100%. For the same compound, the “RA [%] at 100 µM MurD” value in experiment [3] turned out to be 80.
On to `COc1cccc(-n2ncc3c(N/N=C/c4cccc(F)c4)ncnc32)c1` [GW817394X], for which the remaining activity at 100 µM in experiment [1] turned out to be 64%; in experiment [2], 46%; in experiment [3], 81%.
Consider `O=C(Nc1n[nH]c2cc(-c3ccc(F)cc3)ccc12)C1CC1` [SB-735467], for which the remaining activity at 100 µM in experiment [1] was 51%; in experiment [2], 103%; in experiment [3], 75%.
For `Cc1cc(O)cc(C)c1/C=C/c1cncc(-c2nn[nH]n2)c1` [GW441806A], in that order: 70%, 90% and 91%.
For `CC1=C(C(=O)Nc2ccc3[nH]nc(C)c3c2)C(c2ccc(C(F)(F)F)cc2)CC(=O)N1` (stereo not drawn) [GSK466314A], in that order: 79%, 79% and 100%.
With `c1ccc(Cc2nc3ccc(Nc4ncnc5ccccc45)cc3[nH]2)cc1` [GR269666A], the remaining activity at 100 µM was 77% in experiment [1], 96% in experiment [2] and 83% in experiment [3].
